# Reference: patent US20040235884A1, “Preventives/remedies for cholinergic neuropathy” (priority 2001, published 2004)
# What was measured:
# [1] = test system: high-affinity choline transporter; assay: [3H]hemicholinium-3 binding to hippocampal membrane samples after pre-incubation with drug; Scatchard-plot; design: species or system rats
# Experimental: The action of the compound of the formula (I), particularly 4-acylamino-5,6,7,8-tetrahydrofuro[2,3-b]quinoline derivative, relative to the density of the high-affinity choline transporter on the nerve terminal was examined using [^3H]hemicholinium-3, which is a specific labeled ligand of a high-affinity choline transporter (SYNAPSE No. 1, pp. 293-303, 1987). The aforementioned AF64A-treated rats were used in this test, too. Hippocampal membrane samples (P2 fraction) were prepared according to a conventional method from the AF64A-treated animals and the sham operation animals. These membrane samples were incubated in Ringer's solution with Compound A at each concentration or a solvent (vehicle) at 37° C. for 30 min. After the completion of the incubation, the drug was removed from the reaction mixture by centrifugation at 4° C. and the membrane samples were washed. The drug-treated membrane samples thus obtained were suspended in a solution containing [^3H] hemicholinium-3, and incubated overnight at 4° C. […] After thorough drying, a scintillator was added and the radioactivity of the membrane samples was measured on a liquid scintillation counter. […] For the analysis of binding mode, Scatchard-plot was used and the maximum binding Bmax and dissociation constant Kd were calculated.
# AF64A-treated rats = assay: Water maze-learning disorder test in AF64A-treated rats; assay type: in vivo; conditions: FIG. 7
# Excerpt: Because the compound of the formula (I), particularly 4-acylamino-5,6,7,8-tetrahydrofuro[2,3-b]quinoline derivative, has the above-mentioned mechanism, the promoting action on the high-affinity choline uptake is considered to be dependent on the density of high-affinity choline transporters on the nerve terminal, and therefore, to show a shift independent of the elimination rate of a drug. To clarify this point, the sustained promoting action on the high-affinity choline uptake was examined by monitoring the changes in efficacy when the aforementioned AF64A-treated rats were subjected to single and consecutive administration(s) of a drug. In the test, Compound A at each concentration or a solvent (vehicle) was administered singly or consecutively to AF64A-treated animals and the animals that underwent a sham operation. After a given time, the animals were slaughtered and hippocampal membrane samples (P2 fraction) were prepared by a conventional method. These membrane samples were incubated in Ringer's solution supplemented with [^3H) choline at 37° C. for 10 min. After the completion of the incubation, the membrane samples were filtrated on a glass fiber filter using a cell harvester and washed three times with a buffer. After thorough drying, a scintillator was added and the radioactivity of the membrane samples was measured on a liquid scintillation counter. […]
# [2] = test system: high-affinity choline uptake of hippocampal synaptosome (membrane sample); assay: Effect on high-affinity choline uptake, [3H]choline, hippocampal synaptosome (membrane sample, P2 fraction) of AF64A-treated rats, in vitro incubation; assay type: biochemical, male Wistar rats; conditions: membrane samples with choline uptake reduced by AF64A treatment; incubation 37° C. 30 min; FIG. 1
# Experimental: The action of the compound of the formula (I), particularly 4-acylamino-5,6,7,8-tetrahydrofuro[2,3-b]quinoline derivative, on the high-affinity choline uptake was examined using [^3H] choline and hippocampal synaptosome (membrane sample). AF64A (3 μmol), which is a neurotoxin specific to the cholinergic nerve, was administered to male Wistar rats into the cerebral ventricles bilaterally. The rats were subjected to an experiment after a recovery period of about 10 days. Hippocampal membrane samples (P2 fraction) were prepared by a conventional method from these animals and the animals that underwent a sham operation. These membrane samples were incubated in Ringer's solution with Compound A at each concentration or a solvent (vehicle) at 37° C. for 30 min. [^3H] Choline was added to the reaction mixture, and the mixture was incubated for 10 min. After the completion of the incubation, the membrane samples were filtrated on a glass fiber filter using a cell harvester and washed three times with a buffer. After thorough drying, a scintillator was added and the radioactivity of the membrane samples was measured on a liquid scintillation counter. Non-specific uptake was done under ice-cooling.
# [3] = test system: high-affinity choline uptake of hippocampal membrane samples; assay: Sustention of action on high-affinity choline uptake: hippocampal membrane samples prepared after single or consecutive administration to AF64A-treated rats; assay type: in vivo; conditions: for HACU promotion: FIG. 6
# Excerpt: Because the compound of the formula (I), particularly 4-acylamino-5,6,7,8-tetrahydrofuro[2,3-b]quinoline derivative, has the above-mentioned mechanism, the promoting action on the high-affinity choline uptake is considered to be dependent on the density of high-affinity choline transporters on the nerve terminal, and therefore, to show a shift independent of the elimination rate of a drug. To clarify this point, the sustained promoting action on the high-affinity choline uptake was examined by monitoring the changes in efficacy when the aforementioned AF64A-treated rats were subjected to single and consecutive administration(s) of a drug. In the test, Compound A at each concentration or a solvent (vehicle) was administered singly or consecutively to AF64A-treated animals and the animals that underwent a sham operation. After a given time, the animals were slaughtered and hippocampal membrane samples (P2 fraction) were prepared by a conventional method. These membrane samples were incubated in Ringer's solution supplemented with [^3H) choline at 37° C. for 10 min. After the completion of the incubation, the membrane samples were filtrated on a glass fiber filter using a cell harvester and washed three times with a buffer. After thorough drying, a scintillator was added and the radioactivity of the membrane samples was measured on a liquid scintillation counter. The non-specific uptake was that in the presence of hemicholinium-3 (10 μM) in a sodium ion free Ringer's solution. To establish the close relationship between the efficacy observed here and an improving action on the dementia symptoms, the improving effect on the water maze-learning disorder observed in the AF64A-treated rats was also studied at a given time after drug administration for 8 consecutive days.
compound,measurement,setting,value
"Cc1oc2nc3c(c(NC(=O)CN4CCCC4=O)c2c1C)CCCC3 [Compound A, 2-(2-oxopyrrolidin-1-yl)-N-(2,3-dimethyl-5,6,7,8-tetrahydrofuro[2,3-b)quinolin-4-yl)acetamide]",action on maximum binding Bmax of hemicholinium-3 (transporter number on membrane surface),"[1]; Scatchard-plot analysis, FIG. 3",increasing action on the maximum binding Bmax
same,binding of [3H]hemicholinium-3 on the hippocampal membrane sample,"[1]; incubation in advance with drug, 37° C. 30 min, FIG. 2",increased dose-dependently
same,improving effect on learning disorder (water maze),AF64A-treated rats; 24 h after the administration for 8 consecutive days,significant improving effect on learning disorder
same,improving effect on learning disorder (water maze),AF64A-treated rats; 48 h after the administration for 8 consecutive days,significant improving effect on learning disorder
same,choline uptake of hippocampal membrane samples,[2],significantly improved
same,HACU promotion,[3]; 24 h after administration for 4 consecutive days,significant HACU promotion was not observed
same,HACU promotion,[3]; 24 h after administration for 16 consecutive days,same level of improving effect as with the administration for 8 consecutive days
same,HACU promoting action,"[3]; administration for 8 consecutive days, 24 h from the final administration, FIG. 5",significant HACU promoting action was observed
same,HACU promoting action,"[3]; administration for 8 consecutive days, 48 h later, FIG. 5",sustained
same,HACU promoting action,"[3]; administration for 8 consecutive days, 72 h, FIG. 5",disappeared
same,HACU promoting action,"[3]; single administration, 1 h after administration, FIG. 4",significant promotion of HACU
same,HACU promoting action,"[3]; single administration, 3 h after administration, FIG. 4",significant promotion of HACU
same,HACU promoting action,"[3]; single administration, 24 h later, FIG. 4",attenuated
